# Values joined by “and” are separate entries in the source; they are usually repeats but may differ in a detail not shown here. Equal values may be shown once.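 Exposure lasted 48 hours, with cells grown in 96-well plates and compounds tested at five concentrations. GI50: concentration for 50% inhibition of growth. TGI: total growth inhibition.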
# Tests used:
# Assay in all cases: NCI tumour cell line growth inhibition, 48 h
# [1] = test system: SN12C renal
# [2] = test system: UO-31 renal
# [3] = test system: MCF7 breast
# [4] = test system: NCI-H522 lung
# [5] = test system: PC-3 prostate
# [6] = test system: SF-295 CNS
# [7] = test system: RPMI-8226 leukemia
# [8] = test system: MDA-N
# [9] = test system: OVCAR-4 ovarian
# [10] = test system: NCI-H226 lung
# [11] = test system: HCC-2998 colon
Compound,TGI [1],TGI [2],TGI [3],TGI [4],TGI [5],TGI [6],TGI [7],TGI [8],TGI [9],TGI [10],TGI [11],GI50 [2],GI50 [4],GI50 [10],GI50 [6],GI50 [9],GI50 [3],GI50 [1],GI50 [7],GI50 [11]
O=C(/C=C/c1ccc(O)c(-c2cc(C(=O)/C=C/c3ccc(O)cc3)c(O)cc2O)c1)c1ccc(O)cc1O,> 50 µM,> 50 µM,> 50 µM,> 50 µM,> 50 µM,> 50 µM,> 50 µM,> 50 µM,> 50 µM,,,,,,,,,,,
CCCNC(=O)CCC(C)C1CCC2C3C(C[C@H](OC(C)=O)[C@]12C)[C@@]1(C)CCC2(C[C@H]1C[C@H]3OC(C)=O)OOC1(CC[C@]3(C)C4C[C@H](OC(C)=O)[C@]5(C)C(C(C)CCC(=O)NCCC)CCC5C4[C@H](OC(C)=O)C[C@@H]3C1)OO2 (some centres undefined),> 100 µM,3.31 µM,> 100 µM,> 100 µM,> 100 µM,> 100 µM,> 100 µM,> 100 µM,> 100 µM,> 84.7 µM,> 100 µM,,,,,,,,,
[N-]=[N+]=CC(=O)c1ccccc1C#CCCc1ccccc1,> 100 µM,> 100 µM,,30.9 µM,,> 100 µM,50.2 µM,,> 100 µM,98.3 µM,> 100 µM,,,,,,,,,
CC1=CC(=O)c2ccccc2C1=O,25 µM,14 µM,23.8 µM,11.7 µM,16.4 µM,30.3 µM,5.39 µM,2.37 µM,9.54 µM,31 µM,30.7 µM,,,,,,,,,
CCC1CN(C(=O)c2ccccc2)C(Cc2c[nH]c3ccccc23)C(=O)C1CC(=O)OC (centres undefined),> 100 µM,> 100 µM,> 100 µM,> 100 µM,> 100 µM,> 100 µM,,,> 100 µM,> 100 µM,,,,,,,,,,
CCOC(=O)C1=NN(c2ccc(C)cc2)C2=CC(C)=NN(C)C(=S)N21,> 100 µM,> 100 µM,,36.5 µM,> 100 µM,> 100 µM,> 100 µM,> 100 µM,> 100 µM,,> 100 µM,,,,,,,,,
Nc1ccccc1S(=O)(=O)c1ccccc1,> 100 µM,> 100 µM,,,,> 100 µM,> 100 µM,,> 100 µM,> 100 µM,> 100 µM,,,,,,,,,
Cc1c(N2C(=O)CS(=O)(=O)C2c2cccc(Oc3ccccc3)c2)c(=O)n(-c2ccccc2)n1C (centres undefined),> 100 µM,> 100 µM,> 100 µM,> 100 µM,> 100 µM,> 100 µM,74.4 µM,62.6 µM,66.3 µM,> 100 µM,,,,,,,,,,
O=c1[nH]nc(NNc2ccccc2)c2nnn(C3CCCCC3)c12,> 100 µM,> 100 µM,> 100 µM,,> 100 µM,> 100 µM,> 100 µM,> 100 µM,> 100 µM,,> 100 µM,,,,,,,,,
COc1nc(C#CC2(O)CCCCC2)nc(OC)n1,26.6 µM,15.1 µM,19.4 µM,21.9 µM,18.5 µM,60.4 µM,10.5 µM,26.3 µM,4.44 µM,,,,,,,,,,,
COc1ccc(C(=O)c2sc(Nc3ccc(Cl)cc3)nc2N)cc1,> 62.8 µM,97.7 µM,> 100 µM,33.9 µM,> 68.3 µM,46.7 µM,> 43.5 µM,> 22.2 µM,> 61.4 µM,> 100 µM,44.7 µM,,,,,,,,,
CCn1c(-c2ccc(N=NNc3ccc(-c4n[nH]c(=S)n4CC)cc3)cc2)n[nH]c1=S,> 100 µM,5.62 µM,29.2 µM,5.71 µM,8.34 µM,7.1 µM,5.64 µM,> 100 µM,5.41 µM,5.86 µM,,,,,,,,,,
O=C(C[n+]1ccc2ccccc2c1)c1ccc2ccc3ccccc3c2c1,14.7 µM,17.6 µM,11.3 µM,21.8 µM,15.3 µM,16.4 µM,0.646 µM,10.8 µM,19.7 µM,25.3 µM,3.37 µM,,,,,,,,,
CC(C)(C)c1cc(C2=NNC(c3ccccc3)C2)cc(C(C)(C)C)c1O (centres undefined),32.7 µM,30.3 µM,27.7 µM,28.4 µM,27.7 µM,37.7 µM,43.8 µM,28.5 µM,33.2 µM,32.8 µM,,,,,,,,,,
COc1cccc2c1Cc1cc(-c3ccccc3)[n+](C)n1-2,61.7 µM,90.8 µM,5.53 µM,> 100 µM,89.7 µM,> 100 µM,> 100 µM,26 µM,14.5 µM,47.7 µM,> 100 µM,,,,,,,,,
CCCCCCCCC/C=C/C=C/C(=O)NCC(=O)NC1C(O)C(O)C(Nc2ncnc3nc[nH]c23)OC1C(O)CO (centres undefined),0.913 µM,0.0177 µM and 0.0219 µM,,0.0758 µM and 0.277 µM,0.00787 µM,1.08 µM and 8.98 µM,,1.21 µM,0.0515 µM,0.1 µM and 0.373 µM,,0.00344 µM,0.00453 µM,0.00179 µM,0.0441 µM,0.00022 µM,,,,
O=C(OCN1C(=O)C2C3C=CC(C2C1=O)C1C2C(=O)N(COC(=O)C4CCCN4)C(=O)C2C31)C1CCCN1 (centres undefined),> 100 µM,> 100 µM,,> 100 µM,,> 100 µM,54.1 µM,,> 100 µM,> 100 µM,> 100 µM,,,,,,,,,
O=C(/C=C/c1ccccc1)NNC(=O)c1c(Cl)c(Cl)c(Cl)c(Cl)c1-c1nc2ccccc2[nH]1,63.4 µM,55.6 µM,> 100 µM,63.4 µM,> 100 µM,> 100 µM,83.2 µM,45.4 µM,> 100 µM,> 100 µM,65.9 µM,,,,,,,,,
Nc1nc(SCCc2ccccc2)nc2nc3c(c(-c4ccccc4)c12)CCCC3,> 100 µM,> 100 µM,> 100 µM,,> 100 µM,> 100 µM,> 100 µM,> 100 µM,> 100 µM,,,,,,,,,,,
CC12CC3OC(=O)C1COC14OC5(C2C1=O)C(O)(CCC1C4CC(O)C2(O)CC=CC(=O)C12C)C(=O)OC35C (centres undefined),> 100 µM,> 100 µM,> 100 µM,> 100 µM,> 100 µM,> 100 µM,> 100 µM,> 100 µM,> 100 µM,> 100 µM,> 100 µM,,,,,,,,,

Compound,TGI [1],TGI [2],TGI [3],TGI [4],TGI [5],TGI [6],TGI [7],TGI [8],TGI [9],TGI [10],TGI [11],GI50 [2],GI50 [4],GI50 [10],GI50 [6],GI50 [9],GI50 [3],GI50 [1],GI50 [7],GI50 [11]
Cc1ccccc1C(=O)N/N=C/c1ccc(Sc2nccn2C)c([N+](=O)[O-])c1,> 100 µM,> 100 µM,> 100 µM,> 100 µM,> 100 µM,> 100 µM,> 100 µM,> 100 µM,> 100 µM,> 100 µM,> 100 µM,,,,,,,,,
CN(C)CC(CC1=C(CC(CN(C)C)N(C)C)CCC1)N(C)C (centres undefined),> 100 µM,> 100 µM,> 100 µM,> 100 µM,,> 100 µM,> 100 µM,,> 100 µM,> 100 µM,> 100 µM,,,,,,,,,
CCOC(=O)C(NC(=O)c1ccco1)(Nc1nc2ccc(OCC)cc2s1)C(F)(F)F (centres undefined),> 100 µM,> 100 µM,78.8 µM,> 100 µM,93 µM,> 100 µM,,60 µM,> 100 µM,> 100 µM,> 100 µM,,,,,,,,,
CNC(=O)OCc1c(CO)nc(SC)n1C,> 100 µM,> 100 µM,> 100 µM,> 100 µM,,> 100 µM,> 100 µM,,> 100 µM,> 100 µM,> 100 µM,,,,,,,,,
CC1=NN(c2cccc(Cl)c2)C2(SCC(=O)N2c2nc3ccccc3s2)/C1=C\c1cccs1 (centres undefined),,60.2 µM,> 100 µM,61.8 µM,65.6 µM,78.3 µM,38.7 µM,52.4 µM,66 µM,50.7 µM,37.1 µM,,,,,,,,,
CCN(CC(=O)O)C(=O)c1cccnc1,> 100 µM,> 100 µM,,> 100 µM,> 100 µM,> 100 µM,,> 100 µM,> 100 µM,,> 100 µM,,,,,,,,,
C(=N\NC1=NCCN1)/c1ccc(-c2cn3cc(/C=N/NC4=NCCN4)ccc3n2)cc1,> 63.1 µM,99.8 µM,> 100 µM,> 100 µM,> 59.4 µM,> 70.1 µM,> 100 µM,> 100 µM,> 100 µM,> 100 µM,> 100 µM,,,,,,,,,
Fc1ccc(C(OCCN2CCC3CCC(C2)N3C/C=C/c2ccco2)c2ccc(F)cc2)cc1 (centres undefined),24.8 µM,28.8 µM,22.7 µM,20.5 µM,20.6 µM,27.7 µM,17.3 µM,25.9 µM,25.2 µM,28.8 µM,18.4 µM,,,,,,,,,
CC(=O)C1=C(C)N(c2ccc(C)cc2)C2(O)C=CC(=O)C3C(=O)N(c4ccccc4)C(=O)C132 (centres undefined),34.2 µM,24.6 µM,53.7 µM,22 µM,62.3 µM,43.7 µM,> 100 µM,,41.2 µM,34.3 µM,52.3 µM,,,,,,,,,
CCC(C)C1=C(OC(C)=O)[N+]2([O-])Oc3ccc(-c4c(OC(C)=O)c(OC(C)=O)c(-c5ccc(OC(C)=O)cc5)c(OC(C)=O)c4OC(C)=O)cc3OC2(C(C)CC)C(=O)N1OC(C)=O (centres undefined),> 50 µM,> 50 µM,> 50 µM,17.5 µM,> 50 µM,21.8 µM,22.8 µM,> 50 µM,38 µM,> 50 µM,,,,,,,,,,
Cc1nn(-c2ccccc2)c(C)c1/C=N/N=C1\SCC(=O)N1c1ccccc1,> 100 µM,51.1 µM,> 100 µM,,51.5 µM,53.5 µM,35.3 µM,59.6 µM,41.7 µM,66.5 µM,52.8 µM,,,,,,,,,
COc1ccc2c(c1)[nH]c1c(/C=C/c3ccccc3)nccc12,30.2 µM,24 µM,41.6 µM,29 µM,38.9 µM,24.2 µM,93.5 µM,37.2 µM,> 100 µM,53.1 µM,29.9 µM,,,,,,,,,
NC(=O)c1c(NC(=O)c2ccccn2)sc2c1CCC(=O)C2,,6.63 µM,> 100 µM,8.65 µM,> 100 µM,,,,,,,1.82 µM,0.821 µM,,,,2.37 µM,,,
COc1ccc(C(=O)/C=C/c2cccc([N+](=O)[O-])c2)c(OC)c1,2.99 µM,,> 50 µM,> 50 µM,,> 50 µM,3.14 µM,,> 50 µM,7.77 µM,> 50 µM,,1.6 µM,1.65 µM,2.39 µM,2.11 µM,1.37 µM,1.18 µM,1.09 µM,2.27 µM
O=C(O)C1C2CCC(O2)C1C(=O)Nc1cccc2cccnc12 (centres undefined),> 100 µM,> 100 µM,> 100 µM,> 100 µM,> 100 µM,> 100 µM,> 100 µM,> 100 µM,> 100 µM,,> 100 µM,,,,,,,,,
O=C(c1cccs1)N(C(=S)OC12CC3CC(CC(C3)C1)C2)c1ccccc1,89.8 µM,70.3 µM,> 100 µM,46 µM,88.5 µM,> 100 µM,,> 100 µM,> 100 µM,> 100 µM,> 100 µM,,,,,,,,,
O=c1cccccc1[O-].O=c1cccccc1[O-].[O]=[U+2]=[O],63.2 µM,,,,,41.5 µM,,,57 µM,,,,,,,,,27.2 µM,,
C[C@H](CCC(=O)O)[C@H]1CC[C@@]2(C)[C@@H]3C(=O)C[C@H]4C(C)(C)[C@@H](O)CC[C@]4(C)[C@H]3C(=O)C[C@]12C,> 100 µM,30.2 µM,> 100 µM,> 100 µM,> 100 µM,> 100 µM,> 100 µM,> 100 µM,> 100 µM,> 100 µM,> 100 µM,,,,,,,,,
Clc1cc2c(cc1Cl)CC(NCCN1CCCC1)CC2 (centres undefined),31.4 µM,23.6 µM,31 µM,32.4 µM,30.3 µM,29.8 µM,38.1 µM,14.3 µM,35.9 µM,32.1 µM,8.02 µM,,,,,,,,,

# From PubChem BioAssay (NCI)
